How the values were obtained:
Sclerotinia minor = assay type: cell-based
Helminthosporium sativum = experiment: Foliar spray for the control of barley blotch; assay type: in vivo; settings: 300 ppm, greenhouse foliar spray, barley plants
Experimental: Foliar Spray for the Control of Barley Blotch Caused by Helminthosporium sativum
Technical grade material at defined ppm rates (w/v) in an acetone:water mixture (1:9) containing 0.1% Tween 20 (v/v) is sprayed to near run-off onto 7-days-old greenhouse-grown barley plants (var. “Robust”) at the cotyledon stage. Treated plants are inoculated within 24 hours from spraying with an aqueous suspension of approximately 15,000 conidia/ml of Helminthosporium sativum grown on artificial medium. Inoculated plants are placed into a high humidity chamber for 24 hr and then transferred to the greenhouse for 4–5 days for disease development. Disease severity is examined and the % control is calculated as [% disease on untreated plants−% disease on treated plants]/% disease on untreated plants.
The results of these tests are shown in Table 2A below under the heading “Foliar Application—Barley Blotch”.

Uromyces appendiculatus = experiment: Foliar spray for the control of bean rust; assay type: in vivo; settings: 300 ppm, screened against rust on beans as foliar-applied eradicant
Experimental: Foliar Spray for the Control of Bean Rust Caused by Uromyces appendiculatus
Technical grade material at defined ppm rates (w/v) in an acetone:water mixture (1:9) containing 0.1% Tween 20 (v/v) is sprayed to near run-off onto 10-days-old greenhouse-grown Pinto bean plants (var. “Othello”) in the second leaf stage. Treated plants are inoculated within 24 hours with an aqueous suspension of approximately 20,000 uredospores of Uromyces appendiculatus harvested from rust-infected plants. Inoculated plants are placed into a high humidity chamber for 24 hr and then transferred to the greenhouse for two weeks for disease development. Disease severity is examined and the % control is calculated as [% disease on untreated plants−% disease on treated plants]/% disease on untreated plants. The results of these tests are shown in Table 2A below under the heading “Foliar Application—Bean Rust”.

Barley Powdery Mildew = experiment: Soil drench for the control of barley powdery mildew; assay type: in vivo, Erysiyphe graminis f.sp. hordei; settings: 300 ppm, greenhouse soil drench
Experimental: (§1) Soil Drench for the Control of Barley or Cucumber Powdery Mildew
(§2) Technical grade material formulated as described for foliar sprays is dispensed at defined rates (ml/cm^3) into the soil in the pots for barley and cucumber in the stages as described for the foliar sprays. Treated plants are inoculated, within 24 hours with the respective powdery mildew species as described for the foliar spray tests. Inoculated plants are kept in the greenhouse for 6–8 days for disease development. Disease severity is examined and the % control is calculated as [% disease on untreated plants−% disease on treated plants]/% disease on untreated plants. The results of these tests are shown in Table 2B below under the heading “Drench Application—Barley Powdery Mildew” and “Drench Application—Cucumber Powdery Mildew”.

Erysiyphe polygoni = experiment: Foliar spray for the control of bean powdery mildew; assay type: in vivo; settings: 300 ppm, greenhouse foliar spray, Pinto bean plants
Experimental: Foliar Spray for the Control of Bean Powdery Mildew Caused by Erysiyphe polygoni
Technical grade material at defined ppm rates (w/v) in an acetone:water mixture (1:9) containing 0.1% Tween 20 (v/v) is sprayed to near run-off onto greenhouse-grown Pinto bean plants (var. “Othello”) in the second leaf stage. Treated plants are inoculated within 24 hours by brushing mildew-infected plants over treated plants. Inoculated plants are kept in the greenhouse for two weeks for disease development. Disease severity is examined and the % control is calculated as [% disease on untreated plants−% disease on treated plants]/% disease on untreated plants. The results of these tests are shown in Table 2A below under the heading “Foliar Application—Bean Powdery Mildew”.

Fusarium nivale = experiment: microbe, parasite or virus in culture; assay type: cell-based
Pythium ultimum = experiment: microbe, parasite or virus in culture; assay type: cell-based
Phytophthora infestans [1] = assay type: in vivo; settings: 300 ppm, greenhouse foliar spray, tomato plants
Rhizoctonia solani = experiment: microbe, parasite or virus in culture; assay type: cell-based
Cucumber Powdery Mildew = experiment: Soil drench for the control of cucumber powdery mildew; assay type: in vivo; settings: 300 ppm, greenhouse soil drench
Experimental: as §1, §2

Botrytis cinerea = experiment: microbe, parasite or virus in culture; assay type: cell-based
[2] = test system: Erysiyphe graminis f.sp. hordei; experiment: Foliar spray for the control of barley powdery mildew; assay type: in vivo; settings: 300 ppm, greenhouse foliar spray, barley plants
Experimental: Foliar Spray for the Control of Barley Powdery Mildew caused by Erysiyphe graminis f.sp. hordei
Technical grade material at defined ppm rates (w/v) in an acetone:water mixture (1:9) containing 0.1% Tween 20 (v/v) is sprayed to near run-off onto 7-days-old greenhouse-grown barley plants (var. “Robust”) at the cotyledon stage. Treated plants are inoculated within 24 hours by brushing mildew-infected plants over the treated plants. Inoculated plants are kept in the greenhouse for 6–8 days for disease development. Disease severity is examined and the % control is calculated as [% disease on untreated plants−% disease on treated plants]/% diseases in untreated plants. The results of these tests are shown in Table 2A below under the heading “Foliar Application—Barley Powdery Mildew”.

[3] = test system: Cercosporidium personatum; assay type: cell-based
Phytophthora infestans [4] = experiment: microbe, parasite or virus in culture; assay type: cell-based; settings: in vitro, rate 100 ppm, 48 hours
Colletotrichum gossypii = assay type: cell-based
Sclerotium rolfsii = assay type: cell-based

| SMILES | Percent Control Sclerotinia minor (Sclerotinia minor) [%] | Foliar Application (Percent Control) Barley Blotch (Helminthosporium sativum) [%] | Foliar Application (Percent Control) Bean Rust (Uromyces appendiculatus) | Drench Application (Percent Control) Barley Powdery Mildew (Barley Powdery Mildew) [%] | Foliar Application (Percent Control) Bean Powdery Mildew (Erysiyphe polygoni) [%] | Percent Control Fusarium nivale (Fusarium nivale) [%] | Percent Control Pythium ultimum (Pythium ultimum) [%] | Foliar Application (Percent Control) Tomato Late Blight (Phytophthora infestans [1]) [%] | Percent Control Rhizoctonia solani (Rhizoctonia solani) [%] | Drench Application (Percent Control) Cucumber Powdery Mildew (Cucumber Powdery Mildew) [%] | Percent Control Botrytis cinerea (Botrytis cinerea) [%] | Foliar Application (Percent Control) Barley Powdery Mildew [2] [%] | Percent Control Cercosporidium personatum [3] [%] | Percent Control Phytophthora infestants (Phytophthora infestans [4]) [%] | Percent Control Colletotricum gossypii (Colletotrichum gossypii) [%] | Percent Control Sclerotium rolfsii (Sclerotium rolfsii) [%] |
| --- | --- | --- | --- | --- | --- | --- | --- | --- | --- | --- | --- | --- | --- | --- | --- | --- |
| CCC(C)OC(=O)NN(C(=O)C(F)(F)F)c1ccc(Sc2ccccc2)cc1 (stereo not drawn) [Compound 4] | 50 | 0 | 0(e) % | 0 | 88 | 50 | 15 | 0 | 95 | 0 | 75 | 0 | 65 | 100 | 15 | – |
| COC(=O)NNc1ccc(Oc2cccnc2)cc1 [Compound 5] | 100 | 0 | 0(e) % | 0 | 0 | 90 | 70 | – | 0 | 0 | 25 | 0 | 0 | 20 | 100 | 100 |

— US7045512B2 (priority 2003, dated 2006)
